Source: BigSolDB 2.1

CC(C)(OOC(C)(C)c1ccccc1)c1ccccc1
solubility (mole fraction)
Settings	274.15 K	278.15 K	282.15 K	286.15 K	290.15 K	294.15 K	298.15 K	302.15 K
in DMF	0.152	0.196	0.246	0.305	0.365	0.44	0.518	0.619
in ethanol	0.0152	0.0188	0.0236	0.0303	0.0418	0.0573	0.0851	0.142
in isopropanol	0.0132	0.0168	0.0219	0.0291	0.0398	0.0567	0.0859	0.143
in methanol	0.00668	0.00933	0.0118	0.0154	0.02	0.0283	0.0395	0.0602
in n-butanol	0.0241	0.0317	0.0407	0.0541	0.07	0.0974	0.144	0.237
in n-propanol	0.019	0.0253	0.0317	0.0425	0.0568	0.0783	0.118	0.194
in sec-butanol	0.0161	0.0208	0.0275	0.036	0.0486	0.0724	0.107	0.183
